Laboratory results taken from US20260272908A1 (VANDERBILT UNIVERSITY, priority 2023, published 2026).
“Also recorded” adds a separate entry of the source.

Key:
[1] = tested on: STAT pathway / STAT3^Y705 phosphorylation; assay: Phospho-antibody array in Meta3 and Meta4 organoids; format: cell-based, mouse; settings: pyrvinium, 3 days
Description: Shading scale represents standardized log 2(FDR) values. […] Each square represents the signal ratio of the antibody against the unphosphorylated form of the site. FIG. 2E schematically illustrates how the STAT3 and DPPs in RAS/MAPK pathway is affected by Pyr treatment in precancerous organoids.
The top 10 protein candidates were selected, including p-MYC^T358, p-PKCtheta^T538, p-C-Raf^S43 p-STAT3^Y705, p-Pyk2^T580, p-Histone H3.1^S10, p-CREB^T100, p-Pyk2^T881, p-SRF^S77, and p-ERK1/2(p44/42)^T202(FIG. 2C-2D). As the organoids were derived from Mist1-Kras mice, it is not surprising that many proteins on the list are directly related to MAPK and PKC signaling pathways, with the exception of STAT3 (FIG. 2E).

[2] = tested on: p-ERK; assay: Western blot for phospho-ERK in hPCO lines; format: cell-based, human
Description: (§1) FIG. 7C-7D show Western blot analysis for p-STAT3 and p-ERK in three Pyr-resistant hPCO lines after Pyr treatment (FIG. 7C) and ratios of p-STAT3/t-STAT3 and p-ERK/t-ERK (FIG. 7D). FIG. 7E-7F show a Western blot for basal p-STAT3 and p-ERK levels in Pyr-sensitive and Pyr-resistant hPCO lines (FIG. 7E), and ratios of p-STAT3/t-STAT3 and p-ERK/t-ERK (FIG. 7F). FIG. 7G-7H show a Western blot for p-STAT3 and p-ERK in hPCO-3 after treatment of trametinib (Tra), Pyr, and their combinations (FIG. 7G), and ratios of p-STAT3/t-STAT3 and p-ERK/t-ERK (FIG. 7H). […] FIG. 7K-7L show phase-contrast images of Pyr-sensitive hPCO-2 treated with DMSO, Pyr, STAT3-IN-1, Sttatic, and Cryptotanshinone (CPT) for 6 days (FIG. 7K) and quantitation of organoid diameters before and after treatment (FIG. 7L). Mean±standard deviation. […]
(§2) Total proteins were extracted from organoids using radioimmunoprecipitation assay buffer (10 mmol/L Tris-HC, pH 7.2, 150 mmol/L NaCl, 5 mmol/L EDTA, 0.1% sodium dodecyl sulfate, 1.0% Triton X-100, 1% deoxycholate) with protease inhibitors. The protein concentration was measured The Bio-Rad Protein Assay (Bio-Rad Laboratories, Hercules, CA). […] After washes with TBS-T, chemiluminescence was detected with an Amersham Imager 680 instrument (GE Healthcare) after 1 mL of the SuperSignal West Femto Maximum Sensitivity Substrate (ThermoFisher) was applied to the membranes.

[3] = tested on: Mist1-Kras mice; assay: Pyrvinium treatment of Mist1-Kras mice (metaplasia progression to dysplasia, gastric corpus histology and immunostaining); format: in vivo, mouse; settings: pyrvinium 2 weeks, qRT-PCR
[4] = tested on: phospho-STAT3 (p-STAT3); assay: Western blot for phospho-STAT3 in Meta3 and Meta4 organoids; format: cell-based, mouse
Protocol: (§3) FIG. 3C-3D show the Western blot analysis for p-STAT3 and p-ERK in Meta3 and Meta4 organoids (FIG. 3C) and ratios of p-STAT3/total STAT3 and p-ERK/total ERK (FIG. 3D). […] FIG. 3F-3G show phase-contrast images of Meta4 organoids treated with DMSO, Pyr (100 nM), STAT3-IN-1 (1 μM), Stattic (2 μM), and Cryptotanshinone (CPT) (5 μM) for 3 days (FIG. 3F), and quantitation of organoid diameters before and after treatment (FIG. 3G). FIG. 3H-3I show phase-contrast images of Meta4 organoids treated with DMSO, trametinib (Tra), STAT3-IN-1, combination of Tra and STAT3-IN-1, and Pyr, for 3 days (FIG. 3H), and quantitation of organoid diameters before and after treatment (FIG. 3I). FIG. 3J-3K show western blot for p-STAT3 and p-ERK after treatment of Tra, Pyr, and SSTC3 (FIG. 3J) and ratios of p-STAT3/t-STAT3 and p-ERK/t-ERK (FIG. 3K). […] Relative quantification of each gene expression level was normalized to GAPDH gene expression. Shading scale represents the mRNA expression values. FIG. 3M show representative mRNA of Pim-1 and Cyclin-B1 after treatment. Mean±standard deviation. […] Scale bar=500 μM.
as §2, with “CA). 5 to 10 μg of total protein was loaded onto 12.5% or 10% sodium dodecyl sulfate/polyacrylamide gel electrophoresis (PAGE) and transferred onto polyvinylidene difluoride membranes (Millipore, Billerica, MA).” for “CA).”

[5] = tested on: Wnt-target genes; assay: Real-time PCR for Wnt-target genes in Meta4 organoids; format: cell-based, mouse; settings: pyrvinium 100 nM
Protocol: Mean±SD. One-way ANOVA with Tukey's multiple comparisons.
Total RNAs were extracted from Meta3 or Meta4 organoids using the Trizol (Invitrogen) reagent. cDNAs were synthesized using iScript gDNA clear cDNA synthesis kit (Bio-Rad) and RT-PCR was performed using SsoAdvanced™ Universal SYBR Green supermix (Bio-Rad) and a CFX96 Real-Time PCR Detection System (Bio-Rad). GAPDH, a house keeping gene, was used to normalize gene expression levels. All reactions were performed in triplicate and relative gene expression levels were obtained by the comparative ΔΔCt method using CFX Maestro software (Bio-Rad).

[6] = tested on: wild-type mice; assay: Histopathology of major organs in wild-type mice; format: in vivo, mouse; settings: 4 mg/L in drinking water, 2 weeks
Protocol: Hematoxylin and eosin images were obtained from wild-type mice treated with either dimethyl sulfoxide (DMSO) or Pyr (4 mg/L in drinking water) for a duration of 2 weeks. Scale bar=100 μm.
One or two weeks after either DMSO or pyrvinium treatment, gastric mucosa in each group of mice was examined.

[7] = tested on: Meta4 organoids; assay: Meta4 dysplastic organoid growth and cell death (organoid diameter, phase-contrast, H&E, live/dead staining); format: cell-based, mouse; settings: pyrvinium 100 nM, SSTC3 0.2-1 μM, STAT3-IN-1 1 μM, Sttatic 2 μM, 3 days
Protocol: All experiments were repeated at least three times.
All experiments were performed at least in triplicate.

[8] = tested on: phospho-ERK (p-ERK); assay: Western blot for phospho-ERK in Meta3 and Meta4 organoids; format: cell-based, mouse
Protocol: as §3
as §2, with “CA). 5 to 10 μg of total protein was loaded onto 12.5% or 10% sodium dodecyl sulfate/polyacrylamide gel electrophoresis (PAGE) and transferred onto polyvinylidene difluoride membranes (Millipore, Billerica, MA).” for “CA).”

[9] = tested on: p-STAT3^Y705; assay: Western blot for phospho-STAT3 in hPCO lines; format: cell-based, human
Description: as §1, §2

[10] = three pyrvinium-resistant hPCO lines
[11] = three pyrvinium-sensitive hPCO lines

For `Cc1cc(/C=C/c2ccc3cc(N(C)C)ccc3[n+]2C)c(C)n1-c1ccccc1` [pyrvinium], the “most prominent effect on protein phosphorylation (phospho-array)” value ([1]; Meta3 and Meta4) was “dephosphorylation of proteins related to the STAT pathway”, the “STAT3^Y705 phosphorylation (phospho-array)” value [1] was “loss” and the p-ERK levels [2, 10] was “no significant differences”. The p-ERK levels [2, 11] was “decreased”, the “expression of myeloid-derived suppressor cell (MDSC)-related markers” value [3] was “tended to increase, although the changes were not significant” and the “phosphorylation of STAT3^Y705” value ([4]; Meta3) was “reduced phosphorylation”. For the same compound, the “phosphorylation of STAT3^Y705” value ([4]; Meta4, 3 days) was “significant reduction”, the Wnt-target gene expression ([5]; 6 or 24 hours) was “not downregulated” and the “expression of Axin2, Cdca4, Rnf43, and Znrf3” value ([5]; 24 hours after treatment) was “increased”. The “histopathology of major organs (stomach, esophagus, liver, kidney, heart, lung, spleen)” value [6] was “did not induce any noticeable histopathological abnormalities; also recorded: unaffected”, the “organoid size / growth” value [7] was “reduction in organoid size” and the “phosphorylation of ERK” value ([8]; Meta3) was “reduced phosphorylation”. For the same compound, the p-ERK levels ([8]; Meta4, 3 days) was “significant decrease”, the “p-STAT3^Y705 levels” value [9, 10] was “no significant differences” and the “p-STAT3^Y705 levels” value [9, 11] was “decreased”.
